Test results as given in patent publication US9562033B2, “Inhibitors of viral replication, their process of preparation and their therapeutical uses” (LABORATOIRE BIODIM, priority 2012, dated 2017).
pEC50: −log10 of the molar value.

system: NL4-3 strain of HIV-1; assay: HIV-1 replication inhibition: cyto-protection of MT4 cells infected with NL4-3 virus (CellTiter-Glo viability assay); assay type: cell-based; details: Human immunodeficiency virus 1, NL43, 120 h, concentration leading to 50% of cyto-protection, 5 days incubation
Method: The antiviral activity, particularly against HIV, of compounds according to the invention is evaluated by the protocol described below.
Preparation of Virus Stock of the NL4-3 Strain of HIV-1
The virus was prepared as described in Lopez et al (Lopez et al, Proc Natl Acad Sci USA., 2006, 103(40):14947-52, by transfecting 2×10^6 293 T cells (CRL-1573, ATCC) with following modifications: 6 μg of NL4-3 proviral DNA molecular clone were mixed with Fugene 6 transfection reagent from Roche, and used according to manufacturer's instructions. Forty eight hours later, transfected cell supernatants were harvested, filtered through 0.45-μm-pore-size filters, quantified for HIV-1 p24 antigen by using a Innotest HIV antigen mAb assay (Ingen) according to manufacturer's instructions, and used in infection experiments.
Preparation of Compounds:
Serial dilutions of compounds to be tested were prepared in complete RPMI medium from 10 mM DMSO stock solutions, and distributed in a volume of 20 µl in 96 well Falcon 353072 Microtest™ tissue culture plate, in order to get 0.5% DMSO final concentration in each well, after the addition of infected cells. Control wells contained also 0.5% DMSO final concentration but no compound.
MT4 cells (from the NIH AIDS Research and Reference Reagent Program) in RPMI complete medium were counted (10×10^6 cells per well in Falcon 353047 Multiwell™ 24 well) and infected for 2 hours at 37°, at a multiplicity of infection (moi) of 0.0001-0.00001. Cells were then centrifuged 3 min at 3000 rpm, and washed two times in 1 ml PBS to remove viruses that have not entered in cells. Infected cells were resuspended in complete RPMI at 1.25×10^6 cells/ml, and 80 µl of infected cells were distributed in each well containing compounds to be tested or control wells. The plates were then incubated at 37° for 5 days.
Assay Used to Measure the Inhibition of HIV Replication by the Compounds
(according to Gregg S. Jones et al., Antimicrobial Agents and Chemotherapy, 2009, 53 (3): 1194-1203).
After 5 days of incubation, […] of CellTiter-Glo reagent (Promega Biosciences, Inc., Madison Wis., USA) were added to each well. Cell lysis was carried out at room temperature during 10 min, 150 μl of lysates were transferred in Packard Optiplate 96 well, and luminescence was read on a Fluoroskan (Thermo Scientific).

Going from `Cc1sc(-c2cncnc2)c(-c2ccc3c(c2)CCCO3)c1C(OC(C)(C)C)C(=O)O` (centres unmarked) [Example 18, 2-(tert-butoxy)-2-[4-(3,4-dihydro-2H-1-benzopyran-6-yl)-2-methyl-5-(pyrimidin-5-yl)thiophen-3-yl]acetic acid] to `Cc1sc(-c2ccoc2)c(-c2ccc3c(c2)CCCO3)c1C(OC(C)(C)C)C(=O)O` (centres unmarked) [Example 16, 2-(tert-butoxy)-2-[4-(3,4-dihydro-2H-1-benzopyran-6-yl)-5-(furan-3-yl)-2-methylthiophen-3-yl]acetic acid], the pEC50 falls from 6.59 to 6.09 (0.50 log units). The first is the more potent here.

Compared with `Cc1sc(C2CC2)c(C2=CCC(C)(C)CC2)c1C(OC(C)(C)C)C(=O)O` (centres unmarked) [Example 66, 2-(tert-butoxy)-2-{2-methyl-4-[4,4-dimethylcyclohex-1-en-1-yl]-5-(cyclopropyl)thiophen-3-yl}acetic acid], `Cc1sc(-c2cnn(C)c2)c(C2=CCC(C)(C)CC2)c1C(OC(C)(C)C)C(=O)O` (centres unmarked) [Example 24, 2-(tert-butoxy)-2-[4-(4,4-dimethylcyclohex-1-en-1-yl)-2-methyl-5-(N-methylpyrazol-4-yl)thiophen-3-yl]acetic acid] is 0.55 log units higher in pEC50: 5.96 for the first, 6.51 for the second.

Compared with `CCCc1cccc(-c2sc(C)c(C(OC(C)(C)C)C(=O)O)c2C2=CCC(C)(C)CC2)n1` (centres unmarked) [Example 51, 2-(tert-butoxy)-2-{2-methyl-4-[4,4-dimethylcyclohex-1-en-1-yl]-5-(6-(n-propyl)pyridin-2-yl)thiophen-3-yl}acetic acid], `CCCc1ccc(-c2sc(C)c(C(OC(C)(C)C)C(=O)O)c2C2=CCC(C)(C)CC2)nc1` (centres unmarked) [Example 52, 2-(tert-butoxy)-2-{2-methyl-4-[4,4-dimethylcyclohex-1-en-1-yl]-5-(5-(n-propyl)pyridin-2-yl)thiophen-3-yl}acetic acid] is 0.54 log units lower in pEC50: 6.57 for the first, 6.03 for the second.

First: Cc1sc(-c2ccns2)c(C2=CCC(C)(C)CC2)c1C(OC(C)(C)C)C(=O)O (centres unmarked) [Example 63, 2-(tert-butoxy)-2-{2-methyl-4-[4,4-dimethylcyclohex-1-en-1-yl]-5-(isothiazol-5-yl)thiophen-3-yl}acetic acid]
Second: Cc1sc(-c2ccccn2)c(C2=CCC(C)(C)CC2)c1C(OC(C)(C)C)C(=O)O (centres unmarked) [Example 43, 2-(tert-butoxy)-2-[4-(4,4-dimethylcyclohex-1-en-1-yl)-2-methyl-5-(pyridin-2-yl)thiophen-3-yl]acetic acid]
The pEC50 of the first is 0.34 log units lower: 6.02 for the first, 6.36 for the second. The second is the more potent here.

Going from `Cc1sc(-c2ncccn2)c(C2=CCC(C)(C)CC2)c1C(OC(C)(C)C)C(=O)O` (centres unmarked) [Example 49, 2-(tert-butoxy)-2-{2-methyl-4-[4,4-dimethylcyclohex-1-en-1-yl]-5-(Pyrimidin-2-yl)thiophen-3-yl}acetic acid] to `Cc1sc(-c2ccncc2)c(C2=CCC(C)(C)CC2)c1[C@H](OC(C)(C)C)C(=O)O` [Example 11, (2S)-2-(tert-butoxy)-2-[4-(4,4-dimethylcyclohex-1-en-1-yl)-2-methyl-5-(pyridin-4-yl)thiophen-3-yl]acetic acid], the pEC50 rises from 6.00 to 7.49 (1.49 log units). The second is the more potent here.

Compared with `Cc1sc(-c2ccncc2)c(C2=CCC(CF)(CF)CC2)c1C(OC(C)(C)C)C(=O)O` (centres unmarked) [Example 48, [4-(4,4-bis-fluoromethyl-cyclohex-1-enyl)-2-methyl-5-pyridin-4-yl-thiophen-3-yl]-tert-butoxy-acetic acid], `Cc1sc(-c2ccncc2)c(C2=CCC(F)(F)CC2)c1C(OC(C)(C)C)C(=O)O` (centres unmarked) [Example 28, 2-(tert-butoxy)-2-[2-methyl-4-(4,4-difluorocyclohex-1-en-1-yl)-5-(pyridin-4-yl)thiophen-3-yl]acetic acid] is 0.77 log units lower in pEC50: 6.89 for the first, 6.12 for the second. The first is the more potent here.

`CNC(=O)c1ccccc1-c1sc(C)c(C(OC(C)(C)C)C(=O)O)c1C1=CCC(C)(C)CC1` (centres unmarked) [Example 56, 2-(tert-butoxy)-2-{2-methyl-4-[4,4-dimethylcyclohex-1-en-1-yl]-5-(N-methylbenzamide-2-yl)thiophen-3-yl}acetic acid] and `Cc1sc(-c2ccccc2C(N)=O)c(C2=CCC(C)(C)CC2)c1C(OC(C)(C)C)C(=O)O` (centres unmarked) [Example 55, 2-(tert-butoxy)-2-{2-methyl-4-[4,4-dimethylcyclohex-1-en-1-yl]-5-(carboxamidephen-2-yl)thiophen-3-yl}acetic acid] are within 0.2 log units of each other in pEC50: 6.92 for the first, 7.05 for the second.

`Cc1sc(-c2cncnc2)c(C2=CCC(C)(C)CC2)c1C(OC(C)(C)C)C(=O)O` (centres unmarked) [Example 25, 2-(tert-butoxy)-2-[4-(4,4-dimethylcyclohex-1-en-1-yl)-2-methyl-5-(pyrimidin-5-yl)thiophen-3-yl]acetic acid] and `Cc1sc(-c2ccccc2)c(C2=CCC(C)(C)CC2)c1C(OC(C)(C)C)C(=O)O` (centres unmarked) [Example 44, 2-(tert-butoxy)-2-[4-(4,4-dimethylcyclohex-1-en-1-yl)-2-methyl-5-phenylthiophen-3-yl]acetic acid] are within 0.2 log units of each other in pEC50: 6.72 for the first, 6.64 for the second.

First: CCCNC(=O)c1ccc(-c2sc(C)c(C(OC(C)(C)C)C(=O)O)c2C2=CCC(C)(C)CC2)cc1 (centres unmarked) [Example 36, 2-(tert-butoxy)-2-[4-(4,4-dimethylcyclohex-1-en-1-yl)-2-methyl-5-[4-(propylcarbamoyl)phenyl]thiophen-3-yl]acetic acid]
Second: CCCNC(=O)c1cccc(-c2sc(C)c(C(OC(C)(C)C)C(=O)O)c2C2=CCC(C)(C)CC2)c1 (centres unmarked) [Example 42, 2-(tert-butoxy)-2-[4-(4,4-dimethylcyclohex-1-en-1-yl)-2-methyl-5-[3-(propylcarbamoyl)phenyl]thiophen-3-yl]acetic acid]
The pEC50 of the first is 0.40 log units lower: 7.00 for the first, 7.40 for the second.

Going from `Cc1sc(-c2cnc3c(c2)CCCO3)c(C2=CCC(C)(C)CC2)c1C(OC(C)(C)C)C(=O)O` (centres unmarked) [Example 7] to `Cc1csnc1-c1sc(C)c(C(OC(C)(C)C)C(=O)O)c1C1=CCC(C)(C)CC1` (centres unmarked) [Example 89, 2-(tert-butoxy)-2-{2-methyl-4-[4,4-dimethylcyclohex-1-en-1-yl]-5-(4-methylisothiazol-3-yl)thiophen-3-yl}acetic acid], the pEC50 falls from 7.09 to 6.07 (1.02 log units).

First: Cc1sc(-c2cnn(C)c2)c(C2=CCC(C(C)C)CC2)c1C(OC(C)(C)C)C(=O)O (centres unmarked) [Example 26, 2-(tert-butoxy)-2-{2-methyl-4-[4-(propan-2-yl)cyclohex-1-en-1-yl]-5-(N-methylpyrazol-4-yl)thiophen-3-yl}acetic acid]
Second: Cc1sc(-c2ccncc2)c(C2=CCC(C)CC2)c1C(OC(C)(C)C)C(=O)O (centres unmarked) [Example 10, 2-(tert-butoxy)-2-[2-methyl-4-(4-methylcyclohex-1-en-1-yl)-5-(pyridin-4-yl)thiophen-3-yl]acetic acid]
The pEC50 of the first is 0.77 log units lower: 6.08 for the first, 6.85 for the second.

`CCCc1ccnc(-c2sc(C)c(C(OC(C)(C)C)C(=O)O)c2C2=CCC(C)(C)CC2)c1` (centres unmarked) [Example 71, 2-(tert-butoxy)-2-{2-methyl-4-[4,4-dimethylcyclohex-1-en-1-yl]-5-(4-(n-propyl)pyridin-2-yl)thiophen-3-yl}acetic acid] and `COc1cc(-c2sc(C)c(C(OC(C)(C)C)C(=O)O)c2-c2ccc3c(c2)CCCO3)ccn1` (centres unmarked) [Example 84, 2-(tert-butoxy)-2-[4-(3,4-dihydro-2H-1-benzopyran-6-yl)-5-(2-methoxy-pyridin-4-yl)-2-methylthiophen-3-yl]acetic acid] are within 0.2 log units of each other in pEC50: 5.96 for the first, 5.82 for the second.

Going from `Cc1sc(-c2ccc(C(N)=O)cc2)c(-c2ccc3c(c2)CCCO3)c1C(OC(C)(C)C)C(=O)O` (centres unmarked) [Example 22, 2-(tert-butoxy)-2-[5-(4-carbamoylphenyl)-4-(3,4-dihydro-2H-1-benzopyran-6-yl)-2-methylthiophen-3-yl]acetic acid] to `Cc1sc(-c2cccs2)c(-c2ccc3c(c2)CCCO3)c1C(OC(C)(C)C)C(=O)O` (centres unmarked) [Example 23, 2-(tert-butoxy)-2-[4-(3,4-dihydro-2H-1-benzopyran-6-yl)-2-methyl-5-(thiophen-2-yl)thiophen-3-yl]acetic acid], the pEC50 rises from 6.52 to 6.77 (0.25 log units).

First: Cc1sc(-c2ccncc2)c(-c2ccc3c4c(ccnc24)CCO3)c1C(OC(C)(C)C)C(=O)O (centres unmarked) [Example 74, 2-(tert-butoxy)-2-(2-methyl-4-(2,3-dihydropyrano[4,3,2-de]quinolin-7-yl)-5-(pyridin-4-yl)thiophen-3-yl)acetic acid]
Second: Cc1sc(-c2ccnc3ccccc23)c(-c2ccc3c(c2)CCCO3)c1C(OC(C)(C)C)C(=O)O (centres unmarked) [Example 15, 2-(tert-butoxy)-2-[4-(3,4-dihydro-2H-1-benzopyran-6-yl)-2-methyl-5-(quinolin-4-yl)thiophen-3-yl]acetic acid]
The pEC50 of the first is 1.22 log units lower: 5.17 for the first, 6.39 for the second.

For `Cc1sc(-c2ccnc(OCc3ccccc3)c2)c(-c2ccc3c(c2)CCCO3)c1C(OC(C)(C)C)C(=O)O` (centres unmarked) [Example 17, 2-{5-[2-(benzyloxy)pyridin-4-yl]-4-(3,4-dihydro-2H-1-benzopyran-6-yl)-2-methylthiophen-3-yl}-2-(tert-butoxy)acetic acid], the pEC50 was 6.19.
